The supplement of paper PMC11061612

Tests used:
Experiment in all cases: combination Emax (second highest fraction inhibited in the dose matrix, 72 h); higher = more inhibition; extreme values may be limits of the assay
SK-N-FI (Neuroblastoma) = test system: SK-N-FI (Neuroblastoma)
How it was run: (§1)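 Cell lines grown in DMEM/F12 or RPMI with 10% FBS were plated in 1536-well plates and held 24 hours at 37°C, 5% CO2 before 72 hours of exposure to two-drug dose matrices, with DMSO typically at 0.2%. CellTiter-Glo 2.0 luminescence gave viability, which was converted to inhibition. Vehicle wells were set to 0 and blank wells to 1. Combination Emax is the second-highest inhibition in the matrix, and Bliss excess is the observed combination effect minus the expected EA + EB − EA·EB, where EA and EB are the single-agent effects.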

[1] = test system: U-266 (Plasma Cell Myeloma)
How it was run: as §1

[2] = test system: SNU-C5 (Colorectal Carcinoma)
How it was run: as §1

[3] = test system: JiyoyeP-2003 (Burkitt's Lymphoma)
How it was run: as §1

IGR-1 (Melanoma) = test system: IGR-1 (Melanoma)
How it was run: as §1

[4] = test system: SW756 (Cervical Carcinoma)
How it was run: as §1

[5] = test system: TGBC24TKB (Biliary Tract Carcinoma)
How it was run: as §1

J82 (Bladder Carcinoma) = test system: J82 (Bladder Carcinoma)
How it was run: as §1

[6] = test system: EM-2 (Chronic Myelogenous Leukemia)
How it was run: as §1

[7] = test system: KARPAS-620 (Plasma Cell Myeloma)
How it was run: as §1

SN12C (Kidney Carcinoma) = test system: SN12C (Kidney Carcinoma)
How it was run: as §1

RH-1 (Ewing's Sarcoma) = test system: RH-1 (Ewing's Sarcoma)
How it was run: as §1

[8] = test system: 697 (B-Lymphoblastic Leukemia)
How it was run: as §1

[9] = test system: HCC2157 (Breast Carcinoma)
How it was run: as §1

[10] = test system: NCI-H1694 (Small Cell Lung Carcinoma)
How it was run: as §1

[11] = test system: KATOIII (Gastric Carcinoma)
How it was run: as §1

[12] = test system: CFPAC-1 (Pancreatic Carcinoma)
How it was run: as §1

[13] = test system: C3A (Hepatocellular Carcinoma)
How it was run: as §1

CAL-78 (Chondrosarcoma) = test system: CAL-78 (Chondrosarcoma)
How it was run: as §1

[14] = test system: IHH-4 (Thyroid Gland Carcinoma)
How it was run: as §1

Row | Compound | combination Emax (SK-N-FI (Neuroblastoma)) | combination Emax [1] | combination Emax [2] | combination Emax [3] | combination Emax (IGR-1 (Melanoma)) | combination Emax [4] | combination Emax [5] | combination Emax (J82 (Bladder Carcinoma)) | combination Emax [6] | combination Emax [7] | combination Emax (SN12C (Kidney Carcinoma)) | combination Emax (RH-1 (Ewing's Sarcoma)) | combination Emax [8] | combination Emax [9] | combination Emax [10] | combination Emax [11] | combination Emax [12] | combination Emax [13] | combination Emax (CAL-78 (Chondrosarcoma)) | combination Emax [14]
1 | CC(=O)Nc1cccc(-n2c(=O)n(C3CC3)c(=O)c3c(Nc4ccc(I)cc4F)n(C)c(=O)c(C)c32)c1 [Trametinib] + Cc1nc(-c2cn3c(n2)-c2ccc(-c4cnn(C(C)(C)C(N)=O)c4)cc2OCC3)n(C(C)C)n1 [Taselisib] (first compound max 1 µM, 7x7, partner max 10 µM) | 0.954 | 0.796 | 0.794 | 0.544 | 0.759 | 0.626 | 0.969 | 0.593 | 0.935 | 1 | 0.45 | 0.594 | 0.653 | 1 | 0.324 | 0.793 | 0.826 | 0.903 | 0.512 | 0.78
2 | CN(CCO)CC[C@H](CSc1ccccc1)Nc1ccc(S(=O)(=O)NC(=O)c2ccc(N3CCC([C@@H](O)c4ccccc4-c4ccc(Cl)cc4)CC3)cc2)cc1S(=O)(=O)C(F)(F)F [AZD4320] + C=CCn1c(=O)c2cnc(Nc3ccc(N4CCN(C)CC4)cc3)nc2n1-c1cccc(C(C)(C)O)n1 [AZD1775] (first compound max 1 µM, partner max 1 µM) | 0.629 | 0.95 | 0.619 | 0.992 | 0.934 | 0.399 | 0.682 | 0.117 | 0.99 | 1 | 0.322 | 0.986 | 1 | 0.969 | 0.906 | 0.206 | 0.699 | 0.631 | 0.846 | 0.694
3 | Cc1cc2ncnn2cc1Nc1ncc2c(n1)n(C1CCOCC1)c(=O)n2C [AZD7648] + CN(C)CCCOc1ccc(-c2ccc3ncc4c(c3c2)n(C2CCOCC2)c(=O)n4C)cn1 [AZD0156] (first compound max 10 µM, 7x7, partner max 1 µM) | 0.353 | 0.226 | 0.337 | 0.394 | 0.0864 | 0.205 | 0.357 | 0.104 | 0.349 | 0.468 | 0.262 | 0.127 | 0.486 | 0.478 | 0.165 | 0.291 | 0.235 | 0.251 | 0.173 | 0.329
4 | COc1nnc2ccc(N3CCC(c4ccc(OCCN5CCN(C)C(=O)[C@H]5C)cc4)CC3)nn12 [AZD5153] + Cn1cnc2c(F)c(Nc3ccc(Br)cc3Cl)c(C(=O)NOCCO)cc21 [Selumetinib] (first compound max 1 µM, 7x7, partner max 10 µM) | 0.844 | 0.542 | 0.619 | 0.839 | 0.938 | 0.534 | 0.893 | 0.496 | 0.992 | 0.99 | 0.277 | 0.315 | 1 | 1 | 0.234 | 0.424 | 0.584 | 0.777 | 0.391 | 0.662
5 | CC1(C)CCC(CN2CCN(c3ccc(C(=O)NS(=O)(=O)c4ccc(NCC5CCOCC5)c([N+](=O)[O-])c4)c(Oc4cnc5[nH]ccc5c4)c3)CC2)=C(c2ccc(Cl)cc2)C1 [Venetoclax] + Cn1cnc2c(F)c(Nc3ccc(Br)cc3Cl)c(C(=O)NOCCO)cc21 [Selumetinib] (first compound max 1 µM, 7x7, partner max 3 µM) | 0.471 | 0.722 | 0.289 | 0.304 | 0.301 | 0.225 | 0.293 | 0.122 | 0.424 | 1 | 0.206 | 0.0877 | 1 | 0.278 | 0.324 | 0.186 | 0.275 | 0.434 | 0.146 | 0.539
6 | COc1nnc2ccc(N3CCC(c4ccc(OCCN5CCN(C)C(=O)[C@H]5C)cc4)CC3)nn12 [AZD5153] + Cc1c2c(nn1C)CSCc1cc(n(C)n1)CSc1cc(c3ccccc3c1)OCCCc1c(C(=O)O)n(C)c3c-2c(Cl)ccc13 [AZD5991] (first compound max 1 µM, 7x7, partner max 1 µM) | 0.722 | 0.899 | 0.56 | 0.918 | 0.752 | 0.367 | 0.848 | 0.791 | 0.988 | 1 | 0.309 | 0.937 | 1 | 1 | 0.992 | 0.324 | 0.419 | 0.559 | 0.749 | 0.544
7 | CC1(C)CCC(CN2CCN(c3ccc(C(=O)NS(=O)(=O)c4ccc(NCC5CCOCC5)c([N+](=O)[O-])c4)c(Oc4cnc5[nH]ccc5c4)c3)CC2)=C(c2ccc(Cl)cc2)C1 [Venetoclax] + COc1cc(Nc2ncc3c(n2)-c2ccc(Cl)cc2C(c2c(F)cccc2OC)=NC3)ccc1C(=O)O [Alisertib] (first compound max 1 µM, 7x7, partner max 10 µM) | 0.666 | 0.751 | 0.347 | 0.852 | 0.403 | 0.273 | 0.638 | 0.351 | 0.903 | 1 | 0.318 | 1 | 1 | 0.877 | 0.667 | 0.681 | 0.402 | 0.302 | 0.598 | 0.411
8 | CC(=O)c1c(C)c2cnc(Nc3ccc(N4CCNCC4)cn3)nc2n(C2CCCC2)c1=O [Palbociclib] + CC1(C)CCC(CN2CCN(c3ccc(C(=O)NS(=O)(=O)c4ccc(NCC5CCOCC5)c([N+](=O)[O-])c4)c(Oc4cnc5[nH]ccc5c4)c3)CC2)=C(c2ccc(Cl)cc2)C1 [Venetoclax] (first compound max 10 µM, 7x7, partner max 1 µM) | 0.213 | 0.35 | 0.468 | 0.614 | 0.764 | 0.0569 | 0.274 | 0.237 | 0.287 | 0.842 | 0.0441 | 0.277 | 1 | 0.601 | 0.404 | 0.358 | 0.311 | 0.447 | 0.278 | 0.393
9 | Cc1c2c(nn1C)CSCc1cc(n(C)n1)CSc1cc(c3ccccc3c1)OCCCc1c(C(=O)O)n(C)c3c-2c(Cl)ccc13 [AZD5991] + Cn1cnc2c(F)c(Nc3ccc(Br)cc3Cl)c(C(=O)NOCCO)cc21 [Selumetinib] (first compound max 1 µM, 7x7, partner max 3 µM) | 0.565 | 0.985 | 0.456 | 0.675 | 0.622 | 0.336 | 0.418 | 0.197 | 0.609 | 1 | 0.246 | 0.52 | 1 | 0.982 | 0.986 | 0.178 | 0.322 | 0.487 | 0.717 | 0.385
10 | Cc1nc(Nc2ncc(C(=O)Nc3c(C)cccc3Cl)s2)cc(N2CCN(CCO)CC2)n1 [Dasatinib] + CC(=O)Nc1cccc(-n2c(=O)n(C3CC3)c(=O)c3c(Nc4ccc(I)cc4F)n(C)c(=O)c(C)c32)c1 [Trametinib] (first compound max 2 µM, 7x7, partner max 1 µM) | 0.757 | 0.832 | 0.571 | 0.715 | 0.351 | 0.691 | 0.736 | 0.276 | 0.861 | 0.645 | 0.455 | 0.08 | 0.708 | 0.423 | 0.111 | 0.629 | 0.847 | 0.577 | 0.474 | 0.896
11 | COc1cccc(OCCCN)c1-c1cc(Nc2cnc(C#N)cn2)n[nH]1 [Prexasertib] + O=C(c1cc(Cc2n[nH]c(=O)c3ccccc23)ccc1F)N1CCN(C(=O)C2CC2)CC1 [Olaparib] (first compound max 1 µM, 7x7, partner max 10 µM) | 0.889 | 0.749 | 0.776 | 0.986 | 0.566 | 0.456 | 0.835 | 0.462 | 1 | 0.802 | 0.387 | 1 | 1 | 0.967 | 0.797 | 0.431 | 0.671 | 0.53 | 0.565 | 0.789
12 | COc1cccc(OCCCN)c1-c1cc(Nc2cnc(C#N)cn2)n[nH]1 [Prexasertib] + C=CCn1c(=O)c2cnc(Nc3ccc(N4CCN(C)CC4)cc3)nc2n1-c1cccc(C(C)(C)O)n1 [AZD1775] (first compound max 1 µM, partner max 1 µM) | 0.862 | 0.77 | 0.886 | 0.984 | 0.708 | 0.445 | 0.896 | 0.577 | 0.986 | 0.904 | 0.608 | 1 | 1 | 1 | 0.932 | 0.55 | 0.692 | 0.674 | 0.643 | 0.99
